Assay results from patent US20230339866A1, “Quinazoline compounds and the use thereof in the treatment of cancer” (TROBIO THERAPEUTICS PTY LTD, priority 2020, published 2023).

How the values were obtained:
Type in all cases: cell-based
[1] = system: SK-N-SH neuroblastoma cells; experiment: Anti-proliferative activity (MTS assay) against SK-N-SH neuroblastoma cells
Experimental: The ability of compounds of the disclosure to inhibit the proliferation of SK-N-SH neuroblastoma cells was also assessed. […] Cell viability was normalised to control (vehicle alone) and dose response curves and IC50 values (Table 4) were determined using Graph Pad Prism 6.

A549 (NSCLC) = experiment: Anti-proliferative activity (Cell-Titre luminescence) against A549 non-small cell lung cancer cells; conditions: 72 h exposure, Cell-Titre luminescent reagent
How it was run: (§1)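 EC50 derived by nonlinear variable-slope sigmoidal fit of luminescent Cell-Titre viability, normalised to vehicle control. Compound (0.1–30 μM, six concentrations) applied for 72 h after 24 h attachment at 37 °C, 5% CO2.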

A2780 (ovarian) = experiment: Anti-proliferative activity (Cell-Titre luminescence) against A2780 ovarian cancer cells; conditions: 72 h exposure, Cell-Titre luminescent reagent
How it was run: as §1

IC50 ([1]; Homo sapiens, SK-N-SH, 72 h)	IC50 (A549 (NSCLC); Homo sapiens, A549, 72 h)	IC50 (A2780 (ovarian); Homo sapiens, A2780, 72 h)	IC50 ([1]; 72 hours)	IC50 (A549 (NSCLC))	IC50 (A2780 (ovarian))	Compound
1.87 µM	2.74 µM	0.901 µM				CC(C)C(CNc1nc(-c2cc[nH]c2)nc2ccccc12)N1CCN(C)CC1 (stereo not drawn) [Compound 5, N-(3-methyl-2-(4-methylpiperazin-1-yl)butyl)-2-(1H-pyrrol-3-yl)quinazolin-4-amine]
14.3 µM	3.61 µM	1.21 µM				OCCNc1nc(NCc2ccccc2)nc2ccccc12 [Compound 31, 2-((2-(benzylamino)quinazolin-4-yl)amino)ethan-1-ol]
1.4 µM	3.07 µM	1.39 µM				CN1CCN(CCNc2nc(NCCc3cccc(C(F)(F)F)c3)nc3ccccc23)CC1 [Compound 51, N^4-(2-(4-methylpiperazin-1-yl)ethyl)-N^2-(3-(trifluoromethyl)phenethyl)quinazoline-2,4-diamine]
1.15 µM	4.65 µM	3.8 µM				COc1ccc(CCNc2nc(NCCN3CCN(C)CC3)c3ccccc3n2)cc1 [Compound 54, N^2-(4-methoxyphenethyl)-N^4-(2-(4-methylpiperazin-1-yl)ethyl)quinazoline-2,4-diamine]
3.68 µM	8.5 µM	1.01 µM				CN1CCN(CCNc2nc(Nc3cccc(F)c3)nc3ccccc23)CC1 [Compound 56, N^2-(3-fluorophenyl)-N^4-(2-(4-methylpiperazin-1-yl)ethyl)quinazoline-2,4-diamine]
2.07 µM	7.14 µM	2.88 µM				CCc1ccc(Nc2nc(NCCCN(C)C)c3ccccc3n2)cc1 [Compound 71, N^4-(3-(dimethylamino)propyl)-N^2-(4-ethylphenyl)quinazoline-2,4-diamine]
1.47 µM	1.49 µM	0.467 µM				COc1ccc(CCNc2nc(NCCCN(C)C)c3ccccc3n2)cc1 [Compound 75, N^4-(3-(dimethylamino)propyl)-N^2-(4-methoxyphenethyl)quinazoline-2,4-diamine]
2.36 µM	3.04 µM	3.49 µM				CN(C)CCCNc1nc(NCCc2cccc(F)c2)nc2ccccc12 [Compound 77, N^4-(3-(dimethylamino)propyl)-N^2-(3-fluorophenethyl)quinazoline-2,4-diamine]
2.87 µM	4 µM	3.33 µM				COc1ccc(Nc2nc(NCCc3c[nH]cn3)c3ccccc3n2)cc1 [Compound 80, N^4-(2-(1H-imidazol-4-yl)ethyl)-N^2-(4-methoxyphenyl)quinazoline-2,4-diamine]
3.82 µM	3.1 µM	1.2 µM				CCc1ccc(Nc2nc(NCCc3c[nH]cn3)c3ccccc3n2)cc1 [Compound 81, N^4-(2-(1H-imidazol-4-yl)ethyl)-N^2-(4-ethylphenyl)quinazoline-2,4-diamine]
			3.88 µM	9.16 µM	2.2 µM	Fc1cccc(Nc2nc(NCCc3c[nH]cn3)c3ccccc3n2)c1 [Compound 83, N^4-(2-(1H-imidazol-4-yl)ethyl)-N^2-(3-fluorophenyl)quinazoline-2,4-diamine]
4.28 µM	6.81 µM	1.74 µM				COc1ccc(CCNc2nc(NCCc3c[nH]cn3)c3ccccc3n2)cc1 [Compound 85, N^4-(2-(1H-imidazol-4-yl)ethyl)-N^2-(4-methoxyphenethyl)quinazoline-2,4-diamine]
4.43 µM	10.1 µM	2.65 µM				CCc1ccc(CCNc2nc(NCCCO)c3ccccc3n2)cc1 [Compound 93, 3-((2-((4-ethylphenethyl)amino)quinazolin-4-yl)amino)propan-1-ol]
2.62 µM	1.76 µM	2.78 µM				OCCCNc1nc(NCCc2ccc(F)cc2)nc2ccccc12 [Compound 95, 3-((2-((4-fluorophenethyl)amino)quinazolin-4-yl)amino)propan-1-ol]
8.77 µM	6.7 µM	5.52 µM				CN(C)CCNc1nc(-c2ccsc2)nc2ccccc12 [Compound 96, N^1,N^1-dimethyl-N^2-(2-(thiophen-3-yl)quinazolin-4-yl)ethane-1,2-diamine]
0.68 µM	2.25 µM	2.74 µM				Cc1cccc(CCNc2nc(NCCN3CCN(C)CC3)c3ccccc3n2)c1 [Compound 124, N^2-(3-methylphenethyl)-N^4-(2-(4-methylpiperazin-1-yl)ethyl)quinazoline-2,4-diamine]
0.57 µM	0.943 µM	0.606 µM				CC(C)c1ccc(CCNc2nc(NCCN3CCN(C)CC3)c3ccccc3n2)cc1 [Compound 128, N^2-(4-isopropylphenethyl)-N^4-(2-(4-methylpiperazin-1-yl)ethyl)quinazoline-2,4-diamine]
			1.45 µM	2.87 µM	2.38 µM	N^4-(2-(dimethylamino)ethyl)-N^2-(3-(trifluoromethyl)phenethyl)quinazoline-2,4-diamine [Compound 64]

Further lines, the compound ahead of its results:

Compound	IC50 ([1]; Homo sapiens, SK-N-SH, 72 h)	IC50 (A549 (NSCLC); Homo sapiens, A549, 72 h)	IC50 (A2780 (ovarian); Homo sapiens, A2780, 72 h)	IC50 ([1]; 72 hours)	IC50 (A549 (NSCLC))	IC50 (A2780 (ovarian))
CN1CCN(CCNc2nc(Nc3cccc(C(F)(F)F)c3)nc3ccccc23)CC1 [Compound 41, N^4-(2-(4-methylpiperazin-1-yl)ethyl)-N^2-(3-(trifluoromethyl)phenyl)quinazoline-2,4-diamine]	2.22 µM	3.06 µM	0.855 µM			
CN(C)CCNc1nc(Nc2cccc(C(F)(F)F)c2)nc2ccccc12 [Compound 60, N^4-(2-(dimethylamino)ethyl)-N^2-(3-(trifluoromethyl)phenyl)quinazoline-2,4-diamine]	2.61 µM	2.74 µM	2.21 µM			
CN(C)CCCNc1nc(Nc2cccc(C(F)(F)F)c2)nc2ccccc12 [Compound 69, N^4-(3-(dimethylamino)propyl)-N^2-(3-(trifluoromethyl)phenyl)quinazoline-2,4-diamine]	2.39 µM	2.74 µM	0.797 µM			
CN(C)CCCNc1nc(NCCc2cccc(C(F)(F)F)c2)nc2ccccc12 [Compound 74, N^4-(3-(dimethylamino)propyl)-N^2-(3-(trifluoromethyl)phenethyl)quinazoline-2,4-diamine]	1.24 µM	1.7 µM	1.16 µM			
CN(C)CCCNc1nc(NCCc2ccc(F)cc2)nc2ccccc12 [Compound 78, N^4-(3-(dimethylamino)propyl)-N^2-(4-fluorophenethyl)quinazoline-2,4-diamine]	1.86 µM	2.33 µM	2.95 µM			
Fc1cccc(Nc2nc(NCCc3c[nH]cn3)c3ccccc3n2)c1 [Compound 82, N^4-(2-(1H-imidazol-4-yl)ethyl)-N^2-(3-fluorophenyl)quinazoline-2,4-diamine]	4.46 µM	7.46 µM	1.88 µM			
FC(F)(F)c1cccc(CCNc2nc(NCCc3c[nH]cn3)c3ccccc3n2)c1 [Compound 84, N^4-(2-(1H-imidazol-4-yl)ethyl)-N^2-(3-(trifluoromethyl)phenethyl)quinazoline-2,4-diamine]	1.26 µM	1.39 µM	1.51 µM			
CCc1ccc(CCNc2nc(NCCc3c[nH]cn3)c3ccccc3n2)cc1 [Compound 86, N^4-(2-(1H-imidazol-4-yl)ethyl)-N^2-(4-ethylphenethyl)quinazoline-2,4-diamine]	2.17 µM	3.23 µM	1.07 µM			
Fc1ccc(CCNc2nc(NCCc3c[nH]cn3)c3ccccc3n2)cc1 [Compound 88, N^4-(2-(1H-imidazol-4-yl)ethyl)-N^2-(4-fluorophenethyl)quinazoline-2,4-diamine]	2.2 µM	3.42 µM	1.74 µM			
CCc1ccc(CCNc2nc(NCCO)c3ccccc3n2)cc1 [Compound 89, 2-((2-((4-ethylphenethyl)amino)quinazolin-4-yl)amino)ethan-1-ol]	3.48 µM	6.1 µM	2.73 µM			
CN(C)CCNc1nc(-c2ccc[nH]2)nc2ccccc12 [Compound 97, N^1-(2-(1H-pyrrol-2-yl)quinazolin-4-yl)-N^2,N^2-dimethylethane-1,2-diamine]	8.54 µM	4.99 µM	3.07 µM			
CN(C)CCNc1nc(-c2cc[nH]c2)nc2ccccc12 [Compound 98, N^1-(2-(1H-pyrrol-3-yl)quinazolin-4-yl)-N^2,N^2-dimethylethane-1,2-diamine]	3.93 µM	5.21 µM	1.03 µM			
FC(F)(F)c1cccc(CCNc2nc(NCCN3CCNCC3)c3ccccc3n2)c1 [Compound 112, N^4-(2-(piperazin-1-yl)ethyl)-N^2-(3-(trifluoromethyl)phenethyl)quinazoline-2,4-diamine]	0.46 µM	0.938 µM	0.767 µM			
CN1CCN(CCNc2nc(NCCc3cccc(Cl)c3)nc3ccccc23)CC1 [Compound 125, N^2-(3-chlorophenethyl)-N^4-(2-(4-methylpiperazin-1-yl)ethyl)quinazoline-2,4-diamine]	0.73 µM	1.62 µM	0.968 µM			
CN1CCN(CCNc2nc(NCCc3ccc(C(C)(C)C)cc3)nc3ccccc23)CC1 [Compound 129, N^2-(4-(tert-butyl)phenethyl)-N^4-(2-(4-methylpiperazin-1-yl)ethyl)quinazoline-2,4-diamine]	0.42 µM	1 µM	0.316 µM			
